Experimental data published in patent US20080221548A1, “Eradication of Pigmentation and Scar Tissue” (priority 2005, published 2008).

What was measured:
[1] = Experiment 1: removal of tattoo pigmentation with different solutions while puncturing the skin; assay type: in vivo, pig
Procedure: A number of tattoos were applied to the skin of a pig. Each of the tattoos was a square having dimensions approximately 1 cm×1 cm filled with a solid blue-grey color. […] FIG. 3 is a reproduction of a photograph taken 14 days after four of these tattooed areas were treated according to the method of the invention using different types of solution. Square 1 was treated using distilled water and essentially no color reduction was observed. Square 2 was treated using a 2% aqueous solution of salicylic acid. […] Square 3 was treated using a solution containing 17% EDTA.

[2] = Experiment 3: treatment of a pigmented area of skin surrounding a scab by skin puncturing with salicylic acid rinse; assay type: in vivo; details: 5% aqueous solution of salicylic acid, ~10 cc/cm^2, ten minutes puncturing; fourteen days after treatment
Procedure: In FIG. 5A is shown a photograph of an area of skin on which there is a reddish-purple pigmented area surrounding brown colored scab. The pigmented area surrounding the scab was treated using the method described above by repeatedly puncturing the skin for ten minutes. During the treatment 10 cc of a 5% aqueous solution of salicylic acid (˜10 cc/cm^2) was used to clean the needles and surface of the skin. A dry bandage was placed over the treated area for a few days to keep the site clean, but no medication was applied. After this the skin was left unattended. […] Although embodiments of the invention have been described by way of illustration, it will be understood that the invention may be carried out with many variations, modifications, and adaptations, without departing from its spirit or exceeding the scope of the claims.

[3] = Experiment 2: treatment of tattooed squares by skin puncturing with salicylic acid rinse; assay type: in vivo, pig; details: 5% aqueous solution of salicylic acid, 10 cc/cm^2, three minutes puncturing, five squares; eighteen days later
Procedure: A number of tattoos were applied to the skin of a pig. Each of the tattoos was a square having dimensions approximately 1 cm×1 cm filled with a solid blue-grey color. Two months after the tattoos were applied each of the five squares labeled 1 to 5 on the photograph shown in FIG. 4A was treated according to the method of the invention. The treatment for each square consisted of repeatedly puncturing the skin with the device described hereinabove for three minutes. As the machine was operated, the needles and skin surface were cyclically rinsed with a 5% aqueous solution of salicylic acid. A total of 10 cc of solution was used for each square (i.e. 10 cc/cm^2). Following this initial treatment no further treatment was applied to these five locations.

**Q.** What does the source list for `O=C(O)CN(CCN(CC(=O)O)CC(=O)O)CC(=O)O` [EDTA]?
**A.** scar after treatment ([1]; solution containing 17% EDTA, square 3): did not vanish; color reduction ([1]; solution containing 17% EDTA, tattoo square 3, 14 days after treatment): 60%

**Q.** Which reduction in color ([1]; H2O2, tattoo square 4, 14 days after treatment) does the source give for `OO` [H2O2] here?
**A.** 40-60%

**Q.** For `O=C(O)c1ccccc1O` [salicylic acid], which “color of the pigmented area after treatment” value [2] is on record?
**A.** changed to a color slightly greyer than the natural skin color

**Q.** What about the “scar tissue after treatment” value [2] of the same compound?
**A.** gone

**Q.** And the “tattoo color after treatment” value [3]?
**A.** all of the original blue-grey color has disappeared

**Q.** What about the color reduction ([1]; 2% aqueous solution of salicylic acid, 1 cm x 1 cm blue-grey tattoo square 2, 14 days after treatment plus a few days) of the same compound?
**A.** approximately 90%

**Q.** And the scar after treatment ([1]; 2% aqueous solution of salicylic acid, square 2, a few days after the 14-day photograph)?
**A.** vanished leaving no trace
